# Experimental data taken from PMC10839021, “Pharmacological effects of monoterpene carveol on the neuromuscular system of nematodes and mammals” (Frontiers in Pharmacology, 2024).
# Target: T1, A. suum ACR-16 nAChR (Asu-ACR-16, homomeric nicotinic acetylcholine receptor) (Ascaris suum, UniProt A0A0K0QSL7)
# T1 construct: homomeric receptor expressed from Asu-ACR-16 cRNA in Xenopus laevis oocytes
# Assay: two-electrode voltage-clamp in Xenopus oocytes, agonist concentration-response
# Type: cell-based
# T1 sequence (A0A0K0QSL7 entry or part of it): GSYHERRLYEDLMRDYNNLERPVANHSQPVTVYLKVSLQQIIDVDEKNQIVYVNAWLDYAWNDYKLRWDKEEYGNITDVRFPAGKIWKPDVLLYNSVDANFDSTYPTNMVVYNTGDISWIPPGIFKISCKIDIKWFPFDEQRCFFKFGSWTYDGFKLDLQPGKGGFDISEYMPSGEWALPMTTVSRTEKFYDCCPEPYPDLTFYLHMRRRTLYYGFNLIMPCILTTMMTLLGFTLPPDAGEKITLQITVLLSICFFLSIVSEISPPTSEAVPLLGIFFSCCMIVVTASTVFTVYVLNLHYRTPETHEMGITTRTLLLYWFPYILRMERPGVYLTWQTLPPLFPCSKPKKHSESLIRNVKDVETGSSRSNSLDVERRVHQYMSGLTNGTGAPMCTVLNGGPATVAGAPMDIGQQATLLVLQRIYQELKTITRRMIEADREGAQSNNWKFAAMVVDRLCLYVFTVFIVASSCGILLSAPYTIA
smiles,measurement,value
CC(=O)OCC[N+](C)(C)C [acetylcholine],EC50,4.9 ± 1.2 µM
